# Experiments:
# [1] = system: female subjects experiencing Vasomotor Symptoms (VMS); assay: Phase Ib study: frequency of vasomotor symptoms (VMS), moderate and severe VMS counted, 14 days once nightly dosing; type: in vivo, human; set-up: Mean Observed Value in VMS frequency: unit not given here
# Description: (§1) Study Design: This was a Phase Ib, randomized, double blind, placebo controlled study. The study design is illustrated in FIG. 1. Following the initial Screening visit, eligible subjects was given an actigraphy event monitor (watch) to record episodes of flashing as Vasomotor symptoms (VMS) events during a period of 2 weeks during Screening, in order to confirm VMS eligibility criteria (≥7 VMS/day on average during 2 weeks). Subjects may be required to return to the site during the Screening period to read or exchange the actigraphy event monitor. Subjects deemed eligible following review of VMS data were invited to attend the Clinical research unit (CRU) for one residential period of 16 days duration, including 14 days of Investigational Medicinal Product (IMP) administration. Subjects were admitted to the CRU 1 day prior to dosing (Day-1). No medication was administered on Day-1. On Day 1, subjects who meet the study eligibility criteria were randomized to receive one dose level of either Compound A (6 subjects) or a matching placebo (2 subjects) in a double-blind manner. Randomized treatment was administered once nightly, starting on Day 1, for a total duration of 14 days.
# The anticipated dose levels of Compound A to be administered are 50 mg for Cohort 1, 20 mg for Cohort 2 and 5 mg for Cohort 3. Progression to the next dose level and selection of the dose to be administered in Cohort 2 and Cohort 3 is based on emerging safety and tolerability data and available core body temperature data from the preceding dose cohort. If the dose escalation stopping criteria are met, then the dose for the subsequent cohort is reduced. […] The three cohorts are dosed sequentially with a fourth additional cohort being dosed, if necessary, to investigate other dose levels.
# Five (5) mg of Compound A was administered to the female subjects experiencing Vasomotor Symptoms (VMS), and as the above-mentioned assessments, a Frequency of VMS and a Core body temperature assessment were examined.
# Here a moderate VMS and a severe VMS were counted as a VMS frequency.
# [2] = system: female subjects experiencing Vasomotor Symptoms (VMS); assay: Phase Ib study: core body temperature assessment, change from baseline within 24 hours post-dose; type: in vivo, human; conditions: 5 mg administered group, within 24 hours post-dose on Visit Day 1 or 7; like placebo, in comparison with 20 mg and 50 mg groups
# Description: as §1
# The anticipated dose levels of Compound A to be administered are 50 mg for Cohort 1, 20 mg for Cohort 2 and 5 mg for Cohort 3. […]
smiles,measurement,setting,value
"O=C(O)c1ccc(S(=O)(=O)N(Cc2ccc(OC(F)(F)F)cc2)c2ncc3ccccc3c2C2CC2)cc1 [Compound A, 4-({(4-cyclopropylisoquinolin-3-yl)[4-(trifluoromethoxy)benzyl]amino}sulfonyl)benzoic acid]",Effect on frequency of VMS versus placebo (FIG. 2),"[1]; 5 mg once nightly, 14 days of treatment",reduced the frequency of VMS significantly
same,Onset of the reduction effect of VMS frequency,"[1]; 5 mg, shown during the first night of active drug therapy or later, within a few days, compared to estrogen or Paroxetine",immediate effect
same,Mean Observed Value in VMS frequency,"[1]; Baseline, 5 mg Compound A group, moderate and severe VMS counted",14.5
same,Mean Observed Value in VMS frequency,"[1]; Day 1, 5 mg once nightly",9.7
same,Mean Observed Value in VMS frequency,"[1]; Day 2, 5 mg once nightly",7.2
same,Mean Observed Value in VMS frequency,"[1]; Day 3, 5 mg once nightly",6.3
same,Mean Observed Value in VMS frequency,"[1]; Day 4, 5 mg once nightly",5.3
same,Mean Observed Value in VMS frequency,"[1]; Day 5, 5 mg once nightly",8.0
same,Mean Observed Value in VMS frequency,"[1]; Day 6, 5 mg once nightly",6.3
same,Mean Observed Value in VMS frequency,"[1]; Day 7, 5 mg once nightly",4.7
same,Mean Observed Value in VMS frequency,"[1]; Day 8, 5 mg once nightly",3.7
same,Mean Observed Value in VMS frequency,"[1]; Day 9, 5 mg once nightly",4.5
same,Mean Observed Value in VMS frequency,"[1]; Day 10, 5 mg once nightly",3.2
same,Mean Observed Value in VMS frequency,"[1]; Day 11, 5 mg once nightly",3.7
same,Mean Observed Value in VMS frequency,"[1]; Day 12, 5 mg once nightly",3.2
same,Mean Observed Value in VMS frequency,"[1]; Day 13, 5 mg once nightly",3.2
same,Mean Observed Value in VMS frequency,"[1]; Day 14, 5 mg once nightly",4.8
same,Change from baseline in core body temperature,[2],no significant reduced the core body temperature
